Assays:
Format in all cases: cell-based, human
[1] = NRU cell viability assay, MCF-7; settings: human, MCF-7 cells (breast adenocarcinoma), MCF-7, NRU, highest tested concentration (250 µg/mL)
Procedure: (§1) The murine Swiss albino fibroblast (3T3), the immortal human keratinocyte (HaCaT), the squamous cell carcinoma (A431), the human epithelial carcinoma (HeLa) and the human breast adenocarcinoma (MCF-7) cell lines were sourced from Celltec UB (Barcelona, Spain). All cells were maintained and grown in DMEM medium (4.5 g/L glucose) supplemented with 10% (v/v) FBS, 2 mM L-glutamine, 100 U/mL penicillin and 100 μg/mL streptomycin at 37 °C, 5% CO2. Cells were routinely cultured in 75 cm^2 culture flasks and were trypsinized using trypsin-EDTA when the cells reached approximately 80%. Cell concentration in the resulting suspension was assessed using the trypan blue assay, which enables direct discrimination between viable (unstained) and non-viable (blue) cells.
(§2) T3 and HaCaT cells (1 × 10^5 cells/mL), along with A431, HeLa, and MCF-7 cells (5 × 10^4 cells/mL), were cultured at defined seeding densities in the 60 central wells of a 96-well plate. Cells were first incubated for 24 h under standard incubator conditions (5% CO2, 37 °C). After this period, the culture medium was removed, and the cells were incubated for an additional 24 h with their corresponding compound solutions (1 mg/mL) previously diluted in a minimum amount of DMF (dimethylformamide) and then in DMEM medium supplemented with 5% FBS (100 µL) at the required concentration range (20 to 250 µg/mL). Cell viability following exposure to the lactam derivatives was evaluated using two complementary assays: NRU and MTT.
(§3) The neutral red uptake (NRU) assay is based on the accumulation of dye in the lysosomes of viable cells. After the cells were incubated for 24 h with the corresponding systems, the medium was removed, and the solutions were incubated with the NR dye (Sigma-Aldrich, St. Louis, MO, USA) solution (50 µg/mL) dissolved in the medium, without FBS and without phenol red (Lonza, Verviers, Belgium), for 3 h. Cells were then washed with sterile PBS, followed by the addition of 100 µL of a solution containing 50% absolute ethanol and 1% acetic acid in distilled water to extract the dye. To promote the total dissolution of the dye, plates were placed in a microtiter-plate shaker for 5 min at room temperature. The absorbance of the resulting solutions was measured at 550 nm (Bio-Rad 550 microplate reader, Bio-Rad California, Hercules, CA, USA). Finally, the effect of each treatment was calculated as the percentage of dye uptake by viable cells relative to the control cells (cells without any treatment). Finally, the effect of each treatment was calculated as the percentage of dye retained by viable cells compared with untreated control cells.
(§4) The half-maximal inhibitory concentration (IC50) values for the different formulations, across cell lines and experimental endpoints, were obtained by fitting the concentration-dependent viability curves. […] These findings reflect the very low cytotoxicity of the compounds toward these cell lines.

[2] = NRU cell viability assay, HeLa; settings: human, HeLa cells (epithelial carcinoma), highest tested concentration (250 µg/mL)
Procedure: as §1, §2, §3, §4

[3] = NRU cell viability assay, A431; settings: human, A431 cells (squamous cell carcinoma), highest tested concentration (250 µg/mL)
Procedure: as §1, §2, §3, §4

Measured: viability at 24 h, 250 µg/mL

C[C@@H]1CN([C@@H](C)c2ccccc2)C(=O)C1(Cl)Cl [Compound 3, (R)-3,3-dichloro-4-methyl-1-((S)-1-phenylethyl)pyrrolidin-2-one]
20 to 30%: all assays above

— PMC12736018, “Stereoselective Cytotoxicity of Enantiopure 3,3-Dichloro-γ-lactams: Correlating In Vitro Activity with In Vivo Tolerability” (Molecules, 2025)
